# According to PubChem BioAssay AID686918 (Sanford-Burnham Center for Chemical Genomics, 2013):
# Active and inactive are the calls of the source.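 Rule for the calls: active = thrombin counterscreen IC50 at or below 100 µM; inactive = the rest.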
# Biological target: Prothrombin (Bos taurus) (UniProt P00735)
# Assay: thrombin inhibitor potency on Ub4 substrate – biochemical, fluorescence polarization, SAR validation, counter-screen for Rpn11 inhibitor project, dose response (AID 686918)
# Details: bovine thrombin cleavage of Ub4-pepOG
# Chain of Prothrombin (Bos taurus) (P00735 whole entry, looked up): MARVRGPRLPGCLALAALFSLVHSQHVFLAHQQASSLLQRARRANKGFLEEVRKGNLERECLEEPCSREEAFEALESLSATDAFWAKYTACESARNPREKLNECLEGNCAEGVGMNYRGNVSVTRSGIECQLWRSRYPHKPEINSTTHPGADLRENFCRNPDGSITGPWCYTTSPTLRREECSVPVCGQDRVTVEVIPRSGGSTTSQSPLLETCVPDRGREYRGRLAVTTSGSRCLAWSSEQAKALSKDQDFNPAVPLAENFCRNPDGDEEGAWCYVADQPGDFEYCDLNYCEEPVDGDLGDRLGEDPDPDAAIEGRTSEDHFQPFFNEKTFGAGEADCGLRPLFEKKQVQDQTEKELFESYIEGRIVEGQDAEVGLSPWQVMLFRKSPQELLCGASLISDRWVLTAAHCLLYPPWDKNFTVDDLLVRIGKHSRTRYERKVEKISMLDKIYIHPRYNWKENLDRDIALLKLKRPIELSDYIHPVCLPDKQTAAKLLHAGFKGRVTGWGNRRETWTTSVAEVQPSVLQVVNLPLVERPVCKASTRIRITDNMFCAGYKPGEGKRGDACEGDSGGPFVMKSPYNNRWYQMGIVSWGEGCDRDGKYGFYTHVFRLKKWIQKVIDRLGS
row,IC50,SMILES
1,> 99 µM (inactive),CCOc1ccccc1C(=O)Sc1cccc2cccnc12
2,> 99 µM (inactive),O=C(Sc1cccc2cccnc12)c1ccccc1Cl
3,> 99 µM (inactive),O=C(Sc1cccc2cccnc12)c1ccc(F)cc1
4,> 99 µM (inactive),O=C(Sc1cccc2cccnc12)c1ccccc1Br
5,> 99 µM (inactive),O=C(Sc1cccc2cccnc12)c1ccccc1
6,> 99 µM (inactive),Cc1ccc(C(=O)Sc2cccc3cccnc23)cc1
7,> 99 µM (inactive),COc1cccc(C(=O)Sc2cccc3cccnc23)c1
8,> 99 µM (inactive),O=C(Sc1cccc2cccnc12)c1cccc(Cl)c1
9,> 99 µM (inactive),O=C(Sc1cccc2cccnc12)c1ccccc1F
10,> 99 µM (inactive),O=C(Sc1cccc2cccnc12)c1ccccc1I
11,> 99 µM (inactive),O=C(Sc1cccc2cccnc12)c1ccc(F)cc1F
12,> 99 µM (inactive),O=C(Sc1cccc2cccnc12)c1cccc2ccccc12
13,> 99 µM (inactive),Cc1ccccc1C(=O)Sc1cccc2cccnc12
14,> 99 µM (inactive),COc1ccccc1C(=O)Sc1cccc2cccnc12
15,> 99 µM (inactive),O=C(Sc1cccc2cccnc12)c1ccccc1OC(F)(F)F
16,> 99 µM (inactive),O=C(Sc1cccc2cccnc12)c1ccccc1[N+](=O)[O-]
17,> 99 µM (inactive),N#Cc1cccc(C(=O)Sc2cccc3cccnc23)c1
18,> 99 µM (inactive),Cc1cccc(C(=O)Sc2cccc3cccnc23)c1

# The next lines start with the molecule.
row,SMILES,IC50
1,O=C(Sc1cccc2cccnc12)c1cccc(C(F)(F)F)c1,> 99 µM (inactive)
2,O=C(Sc1cccc2cccnc12)C1CCCCC1,> 99 µM (inactive)
3,COC(=O)C[C@H](NC(=O)c1cnc2c(SSc3cccc4cc(C(=O)N[C@@H](CC(=O)OC)C(=O)OC)cnc34)cccc2c1)C(=O)OC,> 99 µM (inactive)
4,CCCc1ccc(C(=O)Sc2cccc3cccnc23)cc1,> 99 µM (inactive)
5,O=C(Sc1cccc2cccnc12)c1ccc(F)c(F)c1,> 99 µM (inactive)
6,CC(C)Cc1ccc(C(=O)Sc2cccc3cccnc23)cc1,> 99 µM (inactive)
7,COC(=O)[C@H](C)NC(=O)c1ccnc2c(SSc3cccc4c(C(=O)N[C@@H](C)C(=O)OC)ccnc34)cccc12,> 99 µM (inactive)
8,COC(=O)[C@H](C)N(C)C(=O)c1cnc2c(SSc3cccc4cc(C(=O)N(C)[C@@H](C)C(=O)OC)cnc34)cccc2c1,> 99 µM (inactive)
9,COc1ccc(C(=O)Sc2cccc3cccnc23)cc1OC,> 99 µM (inactive)
10,COC(=O)[C@H](CO)NC(=O)c1cnc2c(SSc3cccc4cc(C(=O)N[C@@H](CO)C(=O)OC)cnc34)cccc2c1,> 99 µM (inactive)
11,O=C(Sc1cccc2cccnc12)c1ccc([N+](=O)[O-])cc1,> 99 µM (inactive)
12,O=C(O)c1cnc2c(SSc3cccc4cc(C(=O)O)cnc34)cccc2c1,> 99 µM (inactive)
13,CC(C)C[C@H](NC(=O)c1cnc2c(SSc3cccc4cc(C(=O)N[C@@H](CC(C)C)C(=O)O)cnc34)cccc2c1)C(=O)O,> 99 µM (inactive)
14,CC(C)[C@H](NC(=O)c1cnc2c(SSc3cccc4cc(C(=O)N[C@H](C(=O)O)C(C)C)cnc34)cccc2c1)C(=O)O,> 99 µM (inactive)
15,CC[C@@H](C)[C@H](NC(=O)c1cnc2c(SSc3cccc4cc(C(=O)N[C@H](C(=O)OC)[C@@H](C)CC)cnc34)cccc2c1)C(=O)OC,> 99 µM (inactive)
16,O=C(Sc1cccc2cccnc12)c1c(Cl)cccc1Cl,> 99 µM (inactive)
17,O=C(Sc1cccc2cccnc12)c1ccc(C(F)(F)F)cc1,> 99 µM (inactive)
18,C[C@@H](C(=O)O)N(C)C(=O)c1cnc2c(SSc3cccc4cc(C(=O)N(C)[C@@H](C)C(=O)O)cnc34)cccc2c1,> 99 µM (inactive)
19,N#Cc1ccc(C(=O)Sc2cccc3cccnc23)cc1,> 99 µM (inactive)
20,COC(=O)[C@H](CC(C)C)NC(=O)c1cnc2c(SSc3cccc4cc(C(=O)N[C@@H](CC(C)C)C(=O)OC)cnc34)cccc2c1,> 99 µM (inactive)
21,CC[C@@H](C)[C@H](NC(=O)c1cnc2c(SSc3cccc4cc(C(=O)N[C@H](C(=O)O)[C@H](C)CC)cnc34)cccc2c1)C(=O)O,> 99 µM (inactive)
22,COC(=O)c1cnc2c(SSc3cccc4cc(C(=O)OC)cnc34)cccc2c1,> 99 µM (inactive)
23,COC(=O)[C@@H](NC(=O)c1cnc2c(SSc3cccc4cc(C(=O)N[C@H](C(=O)OC)C(C)C)cnc34)cccc2c1)C(C)C,> 99 µM (inactive)
24,COc1ccc(C(=O)Sc2cccc3cccnc23)cc1,> 99 µM (inactive)
25,COC(=O)[C@@H]1CCCN1C(=O)c1cnc2c(SSc3cccc4cc(C(=O)N5CCC[C@H]5C(=O)OC)cnc34)cccc2c1,> 99 µM (inactive)
26,CC(C)(C)OC(=O)CCNC(=O)c1cnc2c(SSc3cccc4cc(C(=O)NCCC(=O)OC(C)(C)C)cnc34)cccc2c1,> 99 µM (inactive)
27,O=C(Sc1cccc2cccnc12)c1ccc2c(c1)OCO2,> 99 µM (inactive)
28,O=C(O)[C@@H]1CCCN1C(=O)c1cnc2c(SSc3cccc4cc(C(=O)N5CCC[C@H]5C(=O)O)cnc34)cccc2c1,> 99 µM (inactive)
29,COC(=O)[C@H](C)NC(=O)c1cnc2c(SSc3cccc4cc(C(=O)N[C@@H](C)C(=O)OC)cnc34)cccc2c1,> 99 µM (inactive)
30,COc1ccc(C(=O)Sc2cccc3cccnc23)cc1F,> 99 µM (inactive)
